From PubChem BioAssay AID1259411 (Chemical Carcinogenesis Research Information System (CCRIS), 2018)
The source made the active and inactive calls. No rule for the calls is given here.

Test system: rodent carcinogenicity bioassays, tumor incidence
Assay: CCRIS carcinogenicity studies
Outline: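 Archive of carcinogenicity, mutagenicity, tumor promotion and tumor inhibition results drawn from journals, NCI reports and other sources, expert-reviewed; covers 1985-2011 and is no longer updated.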

SMILES: C1CO1
- carcinogen call (Species: MOUSE, Strain/Sex: B6C3F1/FEMALE, Route: INHALATION, Dose: 0, 50, 100 PPM 6 HR/D 5 D/WK FOR 102 WK (STUDY DURATION: 105 WK), Dose: 0, 50, 100 PPM 6 HR/D 5 D/WK FOR 102 WK (STUDY DURATION: 105 WK), Tumor Site: Type of Lesion: LUNG: ALVEOLAR/BRONCHIOLAR ADENOMA, LUNG: ALVEOLAR/BRONCHIOLAR CARCINOMA, LUNG: ALVEOLAR/BRONCHIOLAR ADENOMA OR CARCINOM, Tumor Site: Type of Lesion: LUNG: ALVEOLAR/BRONCHIOLAR ADENOMA, LUNG: ALVEOLAR/BRONCHIOLAR CARCINOMA, LUNG: ALVEOLAR/BRONCHIOLAR ADENOMA OR CARCINOM): active; positive
- carcinogen call (Species: MOUSE, Strain/Sex: B6C3F1/MALE, Route: INHALATION, Dose: 0, 50, 100 PPM 6 HR/D 5 D/WK FOR 102 WK (STUDY DURATION: 105 WK), Dose: 0, 50, 100 PPM 6 HR/D 5 D/WK FOR 102 WK (STUDY DURATION: 105 WK), Tumor Site: Type of Lesion: LUNG: ALVEOLAR/BRONCHIOLAR CARCINOMA, LUNG: ALVEOLAR/BRONCHIOLAR ADENOMA OR CARCINOMA, HARDERIAN GLAND: PAPILLARY CYSTAD, Tumor Site: Type of Lesion: LUNG: ALVEOLAR/BRONCHIOLAR CARCINOMA, LUNG: ALVEOLAR/BRONCHIOLAR ADENOMA OR CARCINOMA, HARDERIAN GLAND: PAPILLARY CYSTAD): active; positive
- carcinogen call (Species: MOUSE, Strain/Sex: NMRI/FEMALE, Route: SUBCUTANEOUS, Dose: 0, 0.1, 0.3, 1 MG/MOUSE IN TRICAPRYLIN 1/WK FOR 95 WK (STUDY DURATION: 110 WK), Dose: 0, 0.1, 0.3, 1 MG/MOUSE IN TRICAPRYLIN 1/WK FOR 95 WK (STUDY DURATION: 110 WK), Tumor Site: Type of Lesion: INJECTION SITE: TUMOR): active; positive
- carcinogen call (Species: RAT, Strain/Sex: F344/FEMALE, Route: INHALATION, Dose: 0, 10, 33, 100 PPM 6 HR/D 5 D/WK FOR STUDY DURATION (STUDY DURATION: 2 YR), Dose: 0, 10, 33, 100 PPM 6 HR/D 5 D/WK FOR STUDY DURATION (STUDY DURATION: 2 YR), Tumor Site: Type of Lesion: BRAIN: ASTROCYTOMA, MIXED GLIOMA, OLIGODENDROGLIOMA, MALIGNANT RETICULOSIS): active; positive
- carcinogen call (Species: RAT, Strain/Sex: F344/FEMALE, Route: INHALATION, Dose: 0, 10, 33, 100 PPM 6 HR/D 5 D/WK FOR UP TO 2 YR (STUDY DURATION: 24 MO), Dose: 0, 10, 33, 100 PPM 6 HR/D 5 D/WK FOR UP TO 2 YR (STUDY DURATION: 24 MO)): inactive; negative
- carcinogen call (Species: RAT, Strain/Sex: F344/MALE, Route: INHALATION, Dose: 0, 10, 33, 100 PPM 6 HR/D 5 D/WK FOR STUDY DURATION (STUDY DURATION: 2 YR), Dose: 0, 10, 33, 100 PPM 6 HR/D 5 D/WK FOR STUDY DURATION (STUDY DURATION: 2 YR), Tumor Site: Type of Lesion: BRAIN: GRANULAR CELL TUMOR, ASTROCYTOMA, MIXED GLIOMA, OLIGODENDROGLIOMA, MALIGNANT RETICULOSIS): active; positive
- carcinogen call (Species: RAT, Strain/Sex: F344/MALE, Route: INHALATION, Dose: 0, 10, 33, 100 PPM 6 HR/D 5 D/WK FOR UP TO 2 YR (STUDY DURATION: 24 MO), Dose: 0, 10, 33, 100 PPM 6 HR/D 5 D/WK FOR UP TO 2 YR (STUDY DURATION: 24 MO), Tumor Site: Type of Lesion: BRAIN: GRANULAR CELL TUMOR OR GLIAL CELL TUMOR OR ASTROCYTOMA OR MALIGNANT RETICULOSIS): active; positive
- carcinogen call (Species: RAT, Strain/Sex: F344/MALE, Route: INHALATION, Dose: 0, 50, 100 PPM 7 HR/D 5 D/WK FOR 24 MO (STUDY DURATION: LIFETIME), Dose: 0, 50, 100 PPM 7 HR/D 5 D/WK FOR 24 MO (STUDY DURATION: LIFETIME), Tumor Site: Type of Lesion: HEMATOPOIETIC SYSTEM: MONONUCLEAR CELL LEUKEMIA, PERITONEUM: MESOTHELIOMA, BRAIN: GLIOMA, Tumor Site: Type of Lesion: HEMATOPOIETIC SYSTEM: MONONUCLEAR CELL LEUKEMIA, PERITONEUM: MESOTHELIOMA, BRAIN: GLIOMA): active; positive
- carcinogen call (Species: RAT, Strain/Sex: F344/MALE, Route: INHALATION, Dose: 0, 50, 100 PPM 7 HR/D 5 D/WK FOR 104 WK (STUDY DURATION: 2 YR), Dose: 0, 50, 100 PPM 7 HR/D 5 D/WK FOR 104 WK (STUDY DURATION: 2 YR), Tumor Site: Type of Lesion: BRAIN: GLIOMA (MIXED CELL), PERITONEUM: MESOTHELIOMA, PITUITARY GLAND: ADENOMA, SPLEEN: MONONUCLEAR CELL LEUKEMIA, Tumor Site: Type of Lesion: BRAIN: GLIOMA (MIXED CELL), PERITONEUM: MESOTHELIOMA, PITUITARY GLAND: ADENOMA, SPLEEN: MONONUCLEAR CELL LEUKEMIA): active; positive
- carcinogen call (Species: RAT, Strain/Sex: SPRAGUE-DAWLEY/FEMALE, Route: GAVAGE, Dose: 7.5, 30 MG/KG IN SALAD OIL 2/WK FOR UP TO 150 WK, Tumor Site: Type of Lesion: FORESTOMACH: SQUAMOUS CELL CARCINOMA): active; positive

SMILES: Nc1nc2ncc(CNc3ccc(C(=O)N(N=O)[C@@H](CCC(=O)O)C(=O)O)cc3)nc2c(=O)[nH]1
- carcinogen call (Species: RAT, Route: ORAL, Tumor Site: Type of Lesion: LIVER): active; positive

SMILES: Clc1cc2oc3c(Cl)c(Cl)c(Cl)cc3c2cc1Cl
- carcinogen call (Species: RAT, Strain/Sex: SPRAGUE-DAWLEY/FEMALE, Route: ORAL, Dose: 0, 6, 20, 44, 92, 200 NG/KG/D (STUDY DURATION: 2 YRS), Dose: 0, 6, 20, 44, 92, 200 NG/KG/D (STUDY DURATION: 2 YRS)): inactive; negative
- carcinogen call (Species: RAT, Strain/Sex: WISTAR/MALE, Route: SUBCUTANEOUS, Dose: 0, 4, 40 UG ONCE IN OLIVE OIL (STUDY DURATION: 104 WK), Dose: 0, 4, 40 UG ONCE IN OLIVE OIL (STUDY DURATION: 104 WK), Tumor Site: Type of Lesion: LIVER: HEPATOCELLULAR CARCINOMA, NODULE, INJECTION SITE: TUMOR): active; positive
- carcinogen call (Species: RAT, Strain/Sex: WISTAR/MALE, Route: SUBCUTANEOUS, Dose: 0, 4, 40 UG ONCE IN OLIVE OIL (STUDY DURATION: 104 WK), Dose: 0, 4, 40 UG ONCE IN OLIVE OIL (STUDY DURATION: 104 WK), Tumor Site: Type of Lesion: LIVER: NODULE, INJECTION SITE: TUMOR): active; positive
- carcinogen call (Species: RAT, Strain/Sex: WISTAR/MALE, Route: SUBCUTANEOUS, Dose: 0, 20 UG IN OLIVE OIL 1/WK INTO BACK FOR 4 WK (STUDY DURATION: 104 WK), Tumor Site: Type of Lesion: LIVER: NODULE, INJECTION SITE: TUMOR): active; positive
- carcinogen call (Species: RAT, Strain/Sex: WISTAR/MALE, Route: SUBCUTANEOUS, Dose: 0, 20 UG IN OLIVE OIL INTO BACK 1/WK FOR 4 WK (STUDY DURATION: 104 WK), Tumor Site: Type of Lesion: LIVER: HEPATOCELLULAR CARCINOMA, NODULE): active; positive
- carcinogen call (Species: Rat, Strain/Sex: Harlan Sprague-Dawley/Female, Route: Gavage, Dose: 0, 200 ng 5 d/wk in corn oil:acetone (99:1) for 30 wk and then vehicle for remainder of 2 yr study, Tumor Site: Type of Lesion: Oral Mucosa: Gingival squamous cell carcinoma (1/53, 3/50) Pancreas: Acinar adenoma or carcinoma (0/53, 2/49)): active; positive trend (not statistically significant); for stop study vs. controls, inc
- carcinogen call (Species: Rat, Strain/Sex: Harlan Sprague-Dawley/Female, Route: Gavage, Dose: 0, 6, 20, 44, 92, 200 ng in corn oil:acetone (99:1) 5 d/wk for 2 yrs, Dose: 0, 6, 20, 44, 92, 200 ng in corn oil:acetone (99:1) 5 d/wk for 2 yrs, Tumor Site: Type of Lesion: Liver: Hepatocellular adenoma (1/53, 0/53, 1/53, 0/52, 2/53, 4/53), Cholangiocarcinoma (0/53, 0/53, 0/53, 1/52, 1/53, 2/): active; positive (ntp reports as some evidence; findings in lung, pancreas, and uterus d

SMILES: Cc1cc(N)ccc1N
- carcinogen call (Species: MOUSE, Strain/Sex: B6C3F1/FEMALE, Route: ORAL, Dose: 0, 0.06, 0.1% OF DIET, TWA, Dose: 0, 0.06, 0.1% OF DIET, TWA): inactive; negative
- carcinogen call (Species: MOUSE, Strain/Sex: B6C3F1/MALE, Route: ORAL, Dose: 0, 0.06, 0.1% OF DIET, TWA, Dose: 0, 0.06, 0.1% OF DIET, TWA): inactive; negative
- carcinogen call (Species: RAT, Strain/Sex: F344/FEMALE, Route: ORAL, Dose: 0, 0.06, 0.2% OF DIET, TWA, Dose: 0, 0.06, 0.2% OF DIET, TWA): inactive; negative
- carcinogen call (Species: RAT, Strain/Sex: F344/MALE, Route: ORAL, Dose: 0, 0.06, 0.2% OF DIET, TWA, Dose: 0, 0.06, 0.2% OF DIET, TWA): inactive; negative
